From paper PMC9412362, “Design, Synthesis, and Characterization of Novel Coordination Compounds of Benzimidazole Derivatives with Cadmium” (Pharmaceutics, 2022) come the findings set out here.

Molecules are shown by their SMILES. Values after ≈ are worked out from the molar mass of the structure shown. Bounds are passed on as bounds.

Test [1] concerns T98G cells. The experiment in a line: MTT cytotoxicity assay, glioblastoma T98G. The conditions noted are these: Homo sapiens, MTT assay after 24 h of incubation, read-out: IC50 ± SD, T98G. The test is classed as cell-based, human. How it is done: (§1) Samples of complexes (about 20 mg) were digested in a concentrated mixture of 36% HCl (1 mL) and 65% HNO3 (6 mL). The contents of Cd (II) in the solid complexes were determined with an F-AAS spectrometer (Analytik Jena, contraAA 300, Jena, Germany) with a continuous source of light and using an air/acetylene flame (Analytik Jena, contraAA 300). Absorbances were measured at the analytical spectral lines at 228.8 nm for Cd (II). The limit of quantification was 0.004 mg/L for Cd (II). The solid samples were decomposed using an Anton Paar Multiwave 3000 (Graz, Austria) closed-system instrument. Mineralization was carried out for 45 min at 240 °C under a pressure of 60 bar. The contents of carbon, hydrogen, and nitrogen were determined with an instrument from Vario Micro Company Elementar Analysensysteme GmbH (Langenselbold, Germany). FTIR spectra were recorded with an IR Tracer-100 Schimadzu Spectrometer (4000–600 cm^−1 with an accuracy of recording of 1 cm^−1, Kyoto, Japan) using KBr pellets. The thermal analyses were carried out with a Netzsch STA 449 F1 Jupiter thermoanalyzer (Netzsch-Geratebau GmbH, Selb, Germany) coupled with a Netzsch Aeolos Quadro QMS 403 mass spectrometer (Netzsch-Geratebau GmbH, Selb, Germany). The samples were heated up to 1000 °C in corundum crucibles with a heating rate of 10 °C/min in an atmosphere of synthetic air (20% O2, 80% N2). The cytotoxic effects of the compounds were evaluated using glioblastoma (T98G), neuroblastoma (SK-N-AS), and lung adenocarcinoma (A549) cell lines and normal human skin fibroblasts (CCD-1059Sk). T98G and SK-N-AS cells were cultured in high-glucose DMEM and A549 cells were cultured in DMEM/F12, while CCD-1059Sk cells were cultured in MEM. All media were supplemented with 10% (FBS), 100 U/mL of penicillin, and […] of streptomycin (PenStrep). Cells were incubated at 37 °C in a humidified atmosphere of 5% CO2. Stock solutions were prepared by dissolving the compounds in sterile dimethyl sulfoxide (DMSO) to obtain a concentration of 50 mg/mL. The cells were seeded into sterile 96-well plates (Nunc) at a density of 1 × 10^5 cells/mL. After 24 h of incubation, the medium was removed from each well, and then the cells were incubated for the next 24 h with different concentrations of the tested compounds (1–100 µg/mL) in their respective media containing 2% FBS. The cytotoxicity of the compounds was evaluated using an MTT assay, which was based on the conversion of 3-(4,5-dimethylthiazol-2-yl)-2,5-diphenyltetrazolium bromide (MTT) into dark-blue formazan crystals. Briefly, after 24 h of incubation of the cells with varying concentrations of the tested compounds, all culture media were removed from the plates. The cells were washed with PBS, and then 100 µL of medium containing 10% MTT solution (5 mg/mL) was added to each well. After 3 h of incubation, 100 µL (per well) of 10% SDS buffer solution was added to solubilize the formazan crystals. After overnight incubation, the absorbance was measured at 570 nm using a microplate reader (Epoch, BioTek Instruments). Experiments were repeated twice, and the measurements in each experiment were run in triplicate. The viability of the investigated cells was expressed as the percentage of the viability of the untreated cells, and the results were transformed into IC50 values (expressed as mean ± SD). The complexes were screened for antibacterial and antifungal activity by using the micro-dilution broth method with Mueller–Hinton broth for the growth of bacteria or Mueller–Hinton broth with 2% glucose for the growth of fungi. […]

The test system of test [2] is SK-N-AS cells. Put plainly: MTT cytotoxicity assay, neuroblastoma SK-N-AS. In kind it is cell-based, human. Conditions: Homo sapiens, SK-N-AS, 24 h, MTT assay after 24 h of incubation, read-out: IC50 ± SD, SK-N-AS. As to the method:
as §1

Test [3] concerns A549 cells. The experiment in a line: MTT cytotoxicity assay, lung adenocarcinoma A549. In kind it is cell-based, human. Conditions: Homo sapiens; lung carcinoma A549, MTT assay after 24 h of incubation; read-out: IC50 ± SD, A549. As to the method: as §1
In general terms: Formazan colour is commonly taken as a measure of viable cells.

The test system of test [4] is CCD-1059Sk cells. Put plainly: MTT cytotoxicity assay, normal human skin fibroblasts CCD-1059Sk. Conditions: normal human fibroblasts CCD-1059Sk, MTT assay after 24 h of incubation; read-out: IC50 ± SD, CCD-1059-Sk. The test is classed as cell-based. As to the method: as §1
In test [5] the test system is S. aureus ATCC 25923. Put plainly: MIC, micro-dilution broth method. The test is classed as cell-based, Staphylococcus aureus. Conditions: Staphylococcus aureus, ATCC25923; Gram-positive bacteria; micro-dilution broth; read-out: MIC, S. aureus ATCC 25923. As to the method: as §1
Test [6] deals with S. epidermidis ATCC 12228. The experiment in a line: MIC, micro-dilution broth method. The test is classed as cell-based, Staphylococcus epidermidis. The conditions noted are these: Staphylococcus epidermidis, ATCC12228; Gram-positive bacteria; micro-dilution broth; read-out: MIC, S. epidermidis ATCC 12228. As to the method:
as §1
For orientation: In broth dilution the organism is exposed to a series of concentrations in liquid medium.

Test [7] deals with M. luteus ATCC 10240. Put plainly: MIC, micro-dilution broth method. The test is classed as cell-based, Micrococcus luteus. Conditions: Micrococcus luteus, ATCC10240; Gram-positive bacteria; micro-dilution broth; read-out: MIC, M. luteus ATCC 10240. As to the method:
as §1

For test [8], the system named is E. faecalis ATCC 29212. The experiment in a line: MIC, micro-dilution broth method. The conditions noted are these: Enterococcus faecalis, ATCC29212; Gram-positive bacteria; micro-dilution broth; read-out: MIC, E. faecalis ATCC 29212. In kind it is cell-based, Enterococcus faecalis. How it is done:
as §1

The test system of test [9] is B. subtilis ATCC 6633. The experiment in a line: MIC, micro-dilution broth method. The test is classed as cell-based, Bacillus subtilis. The conditions noted are these: Bacillus subtilis, ATCC6633; Gram-positive bacteria; micro-dilution broth; read-out: MIC, B. subtilis ATCC 6633. As to the method: as §1
For test [10], the system named is B. cereus ATCC 10876. Put plainly: MIC, micro-dilution broth method. The test is classed as cell-based, Bacillus cereus. The conditions noted are these: Bacillus cereus, ATCC10876; Gram-positive bacteria; micro-dilution broth; read-out: MIC, B. cereus ATCC 10876. How it is done: as §1
Test [11] relates to S. typhimurium ATCC 14028. Put plainly: MIC, micro-dilution broth method. In kind it is cell-based, Salmonella Typhimurium. Conditions: Salmonella enterica, Gram-negative bacteria. How it is done:
as §1

Test [12] relates to E. coli ATCC 25922. The experiment in a line: MIC, micro-dilution broth method. In kind it is cell-based, Escherichia coli. Conditions: Escherichia coli, ATCC25922, Gram-negative bacteria. As to the method:
as §1

Test [13] concerns P. mirabilis ATCC 12453. Put plainly: MIC, micro-dilution broth method. In kind it is cell-based, Proteus mirabilis. Conditions: Proteus mirabilis, ATCC12453, Gram-negative bacteria. As to the method:
as §1

Test [14] concerns K. pneumoniae ATCC 13883. The experiment in a line: MIC, micro-dilution broth method. The test is classed as cell-based, Klebsiella pneumoniae. The conditions noted are these: Klebsiella pneumoniae, ATCC13883, Gram-negative bacteria. As to the method: as §1
In test [15] the test system is P. aeruginosa ATCC 9027. Put plainly: MIC, micro-dilution broth method. In kind it is cell-based, Pseudomonas aeruginosa. The conditions noted are these: Pseudomonas aeruginosa, ATCC9027, Gram-negative bacteria. As to the method:
as §1

Test [16] concerns C. glabrata ATCC 2091. The experiment in a line: MIC, micro-dilution broth method. The test is classed as cell-based. Conditions: Nakaseomyces glabratus, ATCC2091, read-out: MIC, C. glabrata ATCC 2091. How it is done: as §1
For test [17], the system named is C. albicans ATCC 102231. Put plainly: MIC, micro-dilution broth method. In kind it is cell-based, Candida albicans. The conditions noted are these: Candida albicans, ATCC102231, read-out: MIC, C. albicans ATCC 102231. As to the method:
as §1

The subject of test [18] is C. parapsilosis ATCC 22019. The experiment in a line: MIC, micro-dilution broth method. The test is classed as cell-based, Candida parapsilosis. The conditions noted are these: Lodderomyces parapsilosis, ATCC22019; Yeasts; micro-dilution broth with 2% glucose. How it is done: as §1

In the case of `c1cnc2[nH]c(-c3ccncc3)nc2c1` [L2], the IC50 (commonly the concentration needed to halve the response being measured) in test [1] is 178 ± 7.3 µM; in test [2] it was 415 ± 17 µM; in test [3] it was 220 ± 11 µM; in test [4] it was above 509 µM. Besides, the MIC (in general, the lowest concentration found to suppress growth) in test [5] stood at 1000 µg/mL (≈ 5.1 mM); in test [6] it was 1000 µg/mL (≈ 5.1 mM); in test [7] it was 250 µg/mL (≈ 1.27 mM); in test [8], 1000 µg/mL (≈ 5.1 mM); in test [9] it was 500 µg/mL (≈ 2.55 mM); in [10] it was 250 µg/mL (≈ 1.27 mM). The MIC was 1000 µg/mL (≈ 5.1 mM) in test [11]; 1000 µg/mL (≈ 5.1 mM) in test [12]; 1000 µg/mL (≈ 5.1 mM) in test [13]; above 1000 µg/mL in [14]; above 1000 µg/mL in test [15]; above 1000 µg/mL in test [16]. For the same molecule, the values for the MIC in test [17] and in test [18] were 1000 µg/mL (≈ 5.1 mM) and above 1000 µg/mL, respectively.
For `c1cncc(-c2nc3cccnc3[nH]2)c1` [L3], the IC50 in [1], in [2], in test [3] and in test [4] was above 509 µM in each case. The MIC in test [5] is above 1000 µg/mL; in test [6], above 1000 µg/mL; in [7], 500 µg/mL (≈ 2.55 mM); in test [8] it was above 1000 µg/mL; in test [9], 1000 µg/mL (≈ 5.1 mM); in test [10], 1000 µg/mL (≈ 5.1 mM). Further, the MIC in test [11], in test [12], in test [13], in test [14], in test [15] and in test [16] was above 1000 µg/mL in each case. Moreover, the MIC was above 1000 µg/mL in [17] and 1000 µg/mL (≈ 5.1 mM) in test [18].
